Earlier results on one compound are cited in patent US20150141404A1, “NON-IONIC VESICLE FORMULATIONS OF CALCIUM CHANNEL BLOCKERS” (CONTRACT PHARMACEUTICALS LIMITED, priority 2012, published 2015).

The subject of this data set is anal fissure. The conditions noted are these: topical.

With `COc1ccc([C@@H]2Sc3ccccc3N(CCN(C)C)C(=O)[C@@H]2OC(C)=O)cc1` [diltiazem, Diltiazem], the healing rates entry is “improved” and the “maximum resting pressure (MRP)” value is reported as “reduces”.
